Experimental data taken from US11008325B2, “Inhibitors of cancer invasion, attachment, and/or metastasis” (VIRGINIA COMMONWEALTH UNIVERSITY, priority 2016, dated 2021).
“Also recorded” adds a separate entry of the source. Read-outs that look alike come from different tables or passages of the source.

Columns and labels:
[1] = target: T1, MDA-9 PDZ12 tandem domain (PDZ1) (Homo sapiens, UniProt O00560); test: NMR [15N,1H] HSQC chemical shift change and titration binding
T1 construct: the MDA-9/Syntenin construct used for the screen contains both PDZ domains; made in house
T1 sequence (O00560 110-274): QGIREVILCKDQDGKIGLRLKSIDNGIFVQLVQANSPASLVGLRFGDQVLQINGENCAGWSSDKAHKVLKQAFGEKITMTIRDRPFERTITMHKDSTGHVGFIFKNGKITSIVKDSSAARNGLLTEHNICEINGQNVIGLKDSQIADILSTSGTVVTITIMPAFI
Procedure: FIGS. 4A-4E. FIG. 4A. […] FIG. 4B. Superposition of 2D [^15N, ^1H]-HSQC spectra of 50 μM MDA-9 PDZ12 tandem domain in the absence and presence of 350 μM 113B7. FIG. 4C. Binding curve and representative spectra for the titration of 113B7 against MDA-9 PDZ12 tandem domain. Top: Zoom of box region in FIG. 4B after titrating 113B7 into Mda9 PDZ, tandem domain. […] Bottom: Titration curve of 113B7 for residue A147. […] FIG. 4D. […] FIG. 4E. Docked structure of 113B7 in complex with MDA-9 PDZ tandem domain (PDB: 1W9E). The pose was obtained with GOLD. Two PDZ domains of MDA-9 are labeled.
NMR based screening of an house assembled fragment library of about 5,000 compounds using [^15N,^1H] […] The proposed docked structure of PDZ1i in the PDZ1 domain and interdomain of MDA-9/Syntenin is shown in FIGS. 4A-4E and FIG. 5, while the chemical structure of PDZ1i is also shown in FIGS. 4A-4E and FIG. 5.
In all binding assays, the MDA-9/Syntenin construct used for the screen contains both PDZ domains. Constructs uniformly labeled with ^15N and ^13C or ^13C-Met selectively labeled are used for binding, mapping and structural studies. These same proteins are used for ITC binding studies.

U1242 cells = test: Proteome Profiler Human Protease Array of conditioned media after radiation; assay type: cell-based; settings: 50 μM PDZ1i 2 hrs prior to radiation
Procedure: FIGS. 10A-10L, PDZ1i inhibits key invasion proteins. U1242 cells were treated with either DMSO or 50 μM PDZ1i 2 hrs prior to radiation in serum-free media. After 48 hrs, media was collected analyzed via the Proteome Profiler Human Protease Array Kit (R&D Systems). Relative protein amounts of the indicated proteins were quantified via ImageJ. FIG. 10A, MMP1; FIG. 10B, MMP2; FIG. 10C, MMP3; FIG. 10D, MMP8; FIG. 10E, MMP9; FIG. 10F, MMP13; FIG. 10G. Cathepsin A; FIG. 10H, Cathepsin B; FIG. 10I, Cathepsin C; FIG. 10J, Cathepsin S; FIG. 10K, Cathepsin V; FIG. 10L, ASAM9.
Radiation can enhance the release of important enzymes, including those involved in invasion such as the matrix metalloproteinase family (MMP). We therefore determined if PDZ1i could affect the secretion of invasion-related proteins following radiation therapy. U1242 cells were treated for 2 hours prior to radiation therapy, and their media collected after 48 hours. […]
CM was harvested from an overnight culture of plated cells in serum-free DMEM+F12 media, filtered with […] filters and further concentrated 10-fold on an Amicon Ultra centrifugal filter—3K (Millipore, Billerica, Mass.). Protein levels were analyzed via the Proteome Profiler Human Protease Array Kit (R&D Systems, Minneapolis, Minn.). Relative quantification was performed by densitometry evaluation. X-ray films were scanned and analyzed with ImageJ software (NIH).

ARCaPM-Luc cells = test: PDZ1i pre-treated ARCaPM-Luc cells injected intravenously; assay type: in vivo, athymic nude mice
Procedure: FIG. 19A-19F. PDZ1i suppresses prostate cancer metastasis and tumor progression. FIG. 19A) Survival data for athymic nude mice in which DMSO or PDZ1i pre-treated ARCaPM cells were injected. FIG. 19B) Survival data for athymic nude mice which were injected with (n=5, each group) ARCaPM-Luc (1×10^6 cells in 100 μl saline) through an intracardiac route. Mice received either vehicle or PDZ1i every alternative day (9 injections during the first three months) and maintained until they needed to be euthanized. FIG. 19C) Survival data for C57BL/6 mice injected through the intracardiac route with RM1-Luc. Vehicle or PDZ1i was administered through intraperitoneal injection every alternate day (total 3 injections during the first week). Survival curves were generated using 6 control vehicle-treated and 5 PDZ1i-treated. Kaplan—Meier survival curves were prepared using Graph Pad software. […] Graphical representation of the average prostate weights from control and treated groups. FIG. 19E and FIG. 19F) Photomicrographs representing the histological changes in prostate sections obtained from 6-month old Hi-Myc mice receiving either vehicle (FIG. 19E) or PDZ1i (FIG. 19F).
To evaluate potential therapeutic efficacy of PDZ1i four sets of in vivo experiments were conducted. […]

SMILES: Cc1cc(NC(=O)c2nc3[nH]c4c(c(=O)n3n2)CCC4)c(C)cc1NC(=O)CCc1nnc(-c2ccccc2)o1 [113B7, N-(2,5-dimethyl-4-(3-(5-phenyl-1,3,4-oxadiazol-2-yl)propanamido)phenyl)-8-oxo-5,6,7,8-tetrahydro-4H-cyclopenta[d][1,2,4]triazolo[1,5-a]pyrimidine-2-carboxamide]
- dissociation constant / affinity in words ([1]; NMR titration (and ITC)): low micromolar range; also recorded: micromolar affinity
- Kd ([1]; NMR titration following backbone amide of residue 147, read-out: Kd values): 21.4 ± 8.62 µM
- Kd ([1]; NMR titration, read-out: upper limit for the dissociation constant of the complex, Kd): < 10 µM
- Binding affinity ranking ([1]; chemical shift change (DPPM) of backbone amide of residue 147, 50 μM PDZ12, compound at 1:1 molar ratio): 4 (4 for DPPM 0.06-0.08)
- Kd ([1]; estimated by NMR titration in 2D HSQC experiments (Table 4), read-out: Kd): ~10 µM
- radiation gains in Cathepsin family members and ADAM9 (U1242 cells): eliminated these gains
- secreted MMP levels (MMP2, MMP9) after radiation (U1242 cells; media after 48 hrs): reduced the levels
- cancer cell concentrations in the lungs (ARCaPM-Luc cells; cells pre-treated with 50 μM PDZ1i): lower cancer cell concentrations in the lungs
- survival (ARCaPM-Luc cells; cells pre-treated with PDZ1i): survived longer
